Data: ChEMBL document CHEMBL3352479, “Discovery and SAR study of 2-(4-pyridylamino)thieno[3,2-d]pyrimidin-4(3H)-ones as soluble and highly potent PDE7 inhibitors” (Bioorg Med Chem Lett, 2015)
In brackets after ≈: the same amount, converted by molar mass.

Columns and labels:
[1] = Solubility in phosphate buffer at pH 6.8; type: physicochemical
[2] = molecular target: High affinity 3',5'-cyclic-AMP phosphodiesterase 7A (Homo sapiens, UniProt Q13946); experiment: Inhibition of PDE7A (unknown origin)
High affinity 3',5'-cyclic-AMP phosphodiesterase 7A, sequence (Q13946 whole entry): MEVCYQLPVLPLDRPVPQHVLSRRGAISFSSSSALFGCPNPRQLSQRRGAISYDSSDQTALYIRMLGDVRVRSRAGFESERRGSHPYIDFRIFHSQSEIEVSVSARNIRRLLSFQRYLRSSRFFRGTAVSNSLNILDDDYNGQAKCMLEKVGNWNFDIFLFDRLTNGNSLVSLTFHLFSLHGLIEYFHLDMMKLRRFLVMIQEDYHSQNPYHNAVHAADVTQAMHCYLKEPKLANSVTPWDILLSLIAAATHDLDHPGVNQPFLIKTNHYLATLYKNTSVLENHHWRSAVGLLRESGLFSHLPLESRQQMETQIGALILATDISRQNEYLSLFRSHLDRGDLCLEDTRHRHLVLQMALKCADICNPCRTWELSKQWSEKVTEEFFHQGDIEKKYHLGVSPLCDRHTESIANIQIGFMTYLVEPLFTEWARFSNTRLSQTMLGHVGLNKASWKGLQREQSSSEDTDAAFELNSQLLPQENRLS

[3] = molecular target: 3',5'-cyclic-AMP phosphodiesterase 4B (Homo sapiens, UniProt Q07343); experiment: Inhibition of PDE4B (unknown origin)
3',5'-cyclic-AMP phosphodiesterase 4B, sequence (Q07343 whole entry): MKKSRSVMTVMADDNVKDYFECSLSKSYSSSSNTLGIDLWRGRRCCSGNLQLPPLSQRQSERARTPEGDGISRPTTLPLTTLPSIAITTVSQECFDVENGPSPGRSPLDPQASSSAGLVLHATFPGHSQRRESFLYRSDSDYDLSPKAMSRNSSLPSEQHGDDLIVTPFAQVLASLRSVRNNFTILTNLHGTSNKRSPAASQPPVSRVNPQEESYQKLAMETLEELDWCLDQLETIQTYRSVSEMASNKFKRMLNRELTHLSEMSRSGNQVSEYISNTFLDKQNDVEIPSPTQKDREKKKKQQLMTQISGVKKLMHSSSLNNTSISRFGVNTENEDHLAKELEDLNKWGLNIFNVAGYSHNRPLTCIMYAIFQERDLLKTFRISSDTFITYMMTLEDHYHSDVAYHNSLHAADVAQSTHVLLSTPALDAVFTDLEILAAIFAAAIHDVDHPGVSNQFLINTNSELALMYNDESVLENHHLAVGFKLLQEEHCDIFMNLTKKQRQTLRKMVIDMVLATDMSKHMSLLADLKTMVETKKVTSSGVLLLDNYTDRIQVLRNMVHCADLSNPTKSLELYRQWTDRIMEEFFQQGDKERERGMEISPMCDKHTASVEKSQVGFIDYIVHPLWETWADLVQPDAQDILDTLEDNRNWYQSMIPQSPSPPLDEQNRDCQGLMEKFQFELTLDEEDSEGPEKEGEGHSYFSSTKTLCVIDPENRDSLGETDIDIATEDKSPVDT

Lymphocyte = experiment: Inhibition of IL2 production from mouse activated lymphocytes; type: functional, cell-based
[4] = molecular target: cGMP-inhibited 3',5'-cyclic phosphodiesterase 3A (Homo sapiens, UniProt Q14432); experiment: Inhibition of PDE3A (unknown origin)
cGMP-inhibited 3',5'-cyclic phosphodiesterase 3A, sequence (Q14432 whole entry): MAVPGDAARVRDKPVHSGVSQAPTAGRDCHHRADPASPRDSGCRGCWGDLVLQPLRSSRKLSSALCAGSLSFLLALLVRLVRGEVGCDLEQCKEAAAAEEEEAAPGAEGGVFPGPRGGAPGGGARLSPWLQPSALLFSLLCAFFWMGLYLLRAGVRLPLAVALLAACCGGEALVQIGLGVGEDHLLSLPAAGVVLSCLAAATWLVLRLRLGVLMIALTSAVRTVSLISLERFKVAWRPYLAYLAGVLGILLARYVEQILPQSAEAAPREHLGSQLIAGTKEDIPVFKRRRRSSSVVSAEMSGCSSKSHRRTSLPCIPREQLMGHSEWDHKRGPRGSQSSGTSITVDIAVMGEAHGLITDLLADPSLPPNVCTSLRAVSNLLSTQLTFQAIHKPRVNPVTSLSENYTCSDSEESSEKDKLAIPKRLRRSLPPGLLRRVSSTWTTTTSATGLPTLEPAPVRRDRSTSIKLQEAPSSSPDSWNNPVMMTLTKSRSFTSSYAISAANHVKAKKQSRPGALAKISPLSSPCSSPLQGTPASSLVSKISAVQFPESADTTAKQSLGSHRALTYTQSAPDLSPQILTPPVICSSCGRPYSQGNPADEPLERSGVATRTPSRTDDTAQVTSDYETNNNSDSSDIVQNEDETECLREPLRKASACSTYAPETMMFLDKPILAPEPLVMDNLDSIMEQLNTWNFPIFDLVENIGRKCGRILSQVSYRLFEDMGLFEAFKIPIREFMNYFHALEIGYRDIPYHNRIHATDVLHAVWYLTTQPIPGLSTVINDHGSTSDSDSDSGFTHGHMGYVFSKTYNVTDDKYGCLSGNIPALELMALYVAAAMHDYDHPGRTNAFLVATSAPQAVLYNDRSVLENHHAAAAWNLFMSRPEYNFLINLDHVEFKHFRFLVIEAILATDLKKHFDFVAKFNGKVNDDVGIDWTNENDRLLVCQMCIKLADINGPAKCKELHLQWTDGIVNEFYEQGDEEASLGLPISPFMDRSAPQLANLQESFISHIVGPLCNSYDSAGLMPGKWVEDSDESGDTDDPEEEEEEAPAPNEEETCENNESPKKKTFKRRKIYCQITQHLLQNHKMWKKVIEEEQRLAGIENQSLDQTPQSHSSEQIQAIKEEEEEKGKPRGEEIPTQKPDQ

[5] = molecular target: cGMP-specific 3',5'-cyclic phosphodiesterase (Homo sapiens, UniProt O76074); experiment: Inhibition of PDE5A (unknown origin)

Structure (SMILES) | solubility [1] [µg/mL] | IC50 [2] [µM] | IC50 [3] [µM] | IC50 (Lymphocyte) [µM] | IC50 [4] [µM] | IC50 [5] [µM]
CCn1c(NC2CCCC2)nc2ccsc2c1=O | 12.1 (≈ 45.9 µM) |  |  |  |  | 
CCn1c(Nc2ccccc2)nc2ccsc2c1=O | 19.5 (≈ 71.9 µM) | 0.29 | 7.4 |  |  | 
CCn1c(Nc2ccccc2C)nc2ccsc2c1=O | 10.1 (≈ 35.4 µM) | 0.088 | 4.3 |  |  | 
CCn1c(Nc2cccc(C)c2)nc2ccsc2c1=O | 65.5 (≈ 230 µM) | > 1 |  |  |  | 
CCn1c(Nc2ccc(C)cc2)nc2ccsc2c1=O | 84 (≈ 294 µM) | > 1 |  |  |  | 
CCc1ccccc1Nc1nc2ccsc2c(=O)n1CC | 1.9 (≈ 6.35 µM) | > 1 |  |  |  | 
CCn1c(Nc2ccccc2C#N)nc2ccsc2c1=O | 0.4 (≈ 1.35 µM) | 2.3 |  |  |  | 
CCn1c(Nc2ccccc2F)nc2ccsc2c1=O | 26.1 (≈ 90.2 µM) | 0.061 | 2.7 |  |  | 
CCn1c(Nc2cccnc2)nc2ccsc2c1=O | 41.6 (≈ 153 µM) | > 1 |  |  |  | 
CCn1c(Nc2ccncc2)nc2ccsc2c1=O | 111 (≈ 408 µM) | 0.63 | 30 |  |  | 

More lines, now with the values ahead:

solubility [1] [µg/mL] | IC50 [2] [µM] | IC50 [3] [µM] | IC50 (Lymphocyte) [µM] | IC50 [4] [µM] | IC50 [5] [µM] | Structure (SMILES)
6.3 (≈ 20.6 µM) | 0.041 | 3 |  |  |  | CCn1c(Nc2ccccc2Cl)nc2ccsc2c1=O
120 (≈ 413 µM) | 0.06 | 5.3 |  |  |  | CCn1c(Nc2ccncc2F)nc2ccsc2c1=O
3.5 (≈ 11.1 µM) | 0.025 | 0.67 |  |  |  | CCn1c(Nc2ccncc2F)nc2c(C#N)csc2c1=O
5.4 (≈ 16.1 µM) | 0.0087 | 0.61 | 1.7 |  |  | CCn1c(Nc2ccncc2F)nc2c(C(C)O)csc2c1=O (stereo not given)
17.9 (≈ 51.4 µM) | 0.0021 | 0.056 | 0.26 |  |  | CCn1c(Nc2ccncc2F)nc2c(C(C)(C)O)csc2c1=O
31.3 (≈ 89.8 µM) | 0.0039 | 0.18 | 0.48 |  |  | CCn1c(Nc2ccncc2F)nc2c(CCCO)csc2c1=O
0.9 (≈ 2.09 µM) | 0.0011 | 0.31 |  |  |  | CCn1c(Nc2ccncc2F)nc2c(C3CCN(C(=O)OC)CC3)csc2c1=O
48.9 (≈ 113 µM) | 0.00068 | 0.28 | 0.16 | 0.029 | 0.52 | CCn1c(Nc2ccncc2F)nc2c(C3CCCN(C(=O)OC)C3)csc2c1=O (stereo not given)
22.7 (≈ 47.9 µM) | 0.0012 | 0.18 | 0.13 | 0.037 | > 10 | CCn1c(Nc2ccncc2F)nc2c(C3CCCN(C(=O)C(C)(C)CO)C3)csc2c1=O (stereo not given)
28.1 (≈ 60.2 µM) | 0.00032 | 0.02 | < 0.1 | 0.017 | 2.9 | CCn1c(Nc2ccncc2F)nc2c(C3CCCN(C(=O)C4(C#N)CC4)C3)csc2c1=O (stereo not given)
